For test [1], the system named is Pichia kudriavzevii. Briefly: Antifungal activity against Candida krusei ATCC 6258 by broth microdilution assay. It is filed as functional.
Test [2] deals with Candida albicans. Briefly: Antifungal activity against Candida albicans ATCC 90028 by broth microdilution assay. Type of test: functional.
In test [3] the test system is Candida parapsilosis. The test is described as follows: Antifungal activity against Candida parapsilosis ATCC 22019 by broth microdilution assay. It is filed as functional. Conditions: Lodderomyces parapsilosis.
The subject of test [4] is Nakaseomyces glabratus. The test is described as follows: Antifungal activity against Candida glabrata ATCC 90030 by broth microdilution assay. Type of test: functional.
In test [5] the test system is NIH3T3. The test is described as follows: Cytotoxicity against mouse NIH/3T3 cells assessed as reduction in cell viability after 24 hrs by MTT assay. Type of test: cell-based. To be noted: NIH3T3, 24 h.
Test [6] has as its system Nakaseomyces glabratus. The test is described as follows: Induction of apoptosis in Candida glabrata ATCC 90030 assessed as late apoptotic cells at antifungal MIC90 after 24 hrs by Annexin V/propidium iodide staining based flow cytometry (reference value: 0.2%). It is filed as functional.
Test [7] has as its system Pichia kudriavzevii. Briefly: Induction of apoptosis in Candida krusei ATCC 6258 assessed as late apoptotic cells at antifungal MIC90 after 24 hrs by Annexin V/propidium iodide staining based flow cytometry (reference value: 1.4%). Type of test: functional.
Test [8] has as its system Nakaseomyces glabratus. The test is described as follows: Induction of apoptosis in Candida glabrata ATCC 90030 assessed as live cells at antifungal MIC90 after 24 hrs by Annexin V/propidium iodide staining based flow cytometry (reference value: 99.5%). It is filed as functional.
Test [9] has as its system Pichia kudriavzevii. The test is described as follows: Induction of apoptosis in Candida krusei ATCC 6258 assessed as live cells at antifungal MIC90 after 24 hrs by Annexin V/propidium iodide staining based flow cytometry (reference value: 97.3%). Type of test: functional.
In test [10] the test system is Candida albicans. The test is described as follows: Induction of apoptosis in Candida albicans ATCC 90028 assessed as late apoptotic cells at antifungal MIC90 after 24 hrs by Annexin V/propidium iodide staining based flow cytometry (reference value: 0%). Type of test: functional.
In test [11] the test system is Candida albicans. The test is described as follows: Induction of apoptosis in Candida albicans ATCC 90028 assessed as necrotic cells at antifungal MIC90 after 24 hrs by Annexin V/propidium iodide staining based flow cytometry (reference value: 0.2%). Type of test: functional.
Test [12] concerns Pichia kudriavzevii. Briefly: Induction of apoptosis in Candida krusei ATCC 6258 assessed as early apoptotic cells at antifungal MIC90 after 24 hrs by Annexin V/propidium iodide staining based flow cytometry (reference value: 0.5%). It is filed as functional.
Test [13] relates to Candida parapsilosis. Briefly: Induction of apoptosis in Candida parapsilosis ATCC 22019 assessed as early apoptotic cells at antifungal MIC90 after 24 hrs by Annexin V/propidium iodide staining based flow cytometry (reference value: 0.1%). Type of test: functional.
Test [14] has as its system Pichia kudriavzevii. The test is described as follows: Induction of apoptosis in Candida krusei ATCC 6258 assessed as necrotic cells at antifungal MIC90 after 24 hrs by Annexin V/propidium iodide staining based flow cytometry (reference value: 0.9%). Type of test: functional.
Test [15] deals with Candida parapsilosis. The test is described as follows: Induction of apoptosis in Candida parapsilosis ATCC 22019 assessed as necrotic cells at antifungal MIC90 after 24 hrs by Annexin V/propidium iodide staining based flow cytometry (reference value: 1.4%). Type of test: functional.
The subject of test [16] is Candida albicans. Briefly: Induction of apoptosis in Candida albicans ATCC 90028 assessed as live cells at antifungal MIC90 after 24 hrs by Annexin V/propidium iodide staining based flow cytometry (reference value: 99.8%). Type of test: functional.
Test [17] deals with Candida parapsilosis. Briefly: Induction of apoptosis in Candida parapsilosis ATCC 22019 assessed as live cells at antifungal MIC90 after 24 hrs by Annexin V/propidium iodide staining based flow cytometry (reference value: 97.6%). Type of test: functional.
In test [18] the test system is Candida parapsilosis. The test is described as follows: Induction of apoptosis in Candida parapsilosis ATCC 22019 assessed as late apoptotic cells at antifungal MIC90 after 24 hrs by Annexin V/propidium iodide staining based flow cytometry (reference value: 0.9%). Type of test: functional.
Test [19] has as its system Candida albicans. Briefly: Induction of apoptosis in Candida albicans ATCC 90028 assessed as early apoptotic cells at antifungal MIC90 after 24 hrs by Annexin V/propidium iodide staining based flow cytometry (reference value: 0%). Type of test: functional.
For test [20], the system named is Nakaseomyces glabratus. The test is described as follows: Induction of apoptosis in Candida glabrata ATCC 90030 assessed as early apoptotic cells at antifungal MIC90 after 24 hrs by Annexin V/propidium iodide staining based flow cytometry (reference value: 0%). It is filed as functional.
For test [21], the system named is Nakaseomyces glabratus. Briefly: Induction of apoptosis in Candida glabrata ATCC 90030 assessed as necrotic cells at antifungal MIC90 after 24 hrs by Annexin V/propidium iodide staining based flow cytometry (reference value: 0.3%). Type of test: functional.
Test [22] deals with Candida parapsilosis. Briefly: Induction of apoptosis in Candida parapsilosis ATCC 22019 assessed as increase in late apoptotic cells at antifungal MIC90 by Annexin V/propidium iodide staining based flow cytometry. It is filed as functional, organism-based. Conditions: TDE = time-dependent effect.
Test [23] concerns Nakaseomyces glabratus. The test is described as follows: Induction of apoptosis in Candida glabrata ATCC 90030 assessed as increase in late apoptotic cells at antifungal MIC90 by Annexin V/propidium iodide staining based flow cytometry. Conditions: TDE = time-dependent effect. It is filed as functional, organism-based.
The subject of test [24] is Candida albicans. The test is described as follows: Induction of apoptosis in Candida albicans ATCC 90028 assessed as increase in late apoptotic cells at antifungal MIC90 by Annexin V/propidium iodide staining based flow cytometry. It is filed as functional, organism-based. Conditions: TDE = time-dependent effect.
The subject of test [25] is Pichia kudriavzevii. The test is described as follows: Induction of apoptosis in Candida krusei ATCC 6258 assessed as increase in late apoptotic cells at antifungal MIC90 by Annexin V/propidium iodide staining based flow cytometry. To be noted: TDE = time-dependent effect. Type of test: functional, organism-based.

Converted amounts (≈) assume the structure as drawn.

Consider `Cn1cnnc1SCCc1nnc(SCC(=O)Nc2ccc(Cl)cc2)o1`, for which the MIC90 is 500 µg/mL (≈ 1220 µM) in [1], 250 µg/mL (≈ 608 µM) in test [2], 500 µg/mL (≈ 1220 µM) in test [3] and 250 µg/mL (≈ 608 µM) in test [4]. In addition, the IC50 in test [5] was more than 500 µg/mL.
For `Cn1cnnc1SCCc1nnc(SCC(=O)Nc2ccc([N+](=O)[O-])cc2)o1`, the Activity in test [6] is 1.8%; in test [7] it was 3.4%; in [8], 78.7%; in [9] it was 70.5%; in test [10] it was 13.5%; in [11], 7%. Further, the Activity stood at 0.3% in test [12]; 0.3% in test [13]; 25.9% in test [14]; 4.2% in [15]; 79.1% in test [16]; 93.4% in [17]. Further, the Activity worked out at 4.2% in test [18], 0.4% in [19], 0.4% in test [20] and 19.1% in test [21]. The MIC90 turned out to be 125 µg/mL (≈ 297 µM) in test [1], 62.5 µg/mL (≈ 148 µM) in test [2], 125 µg/mL (≈ 297 µM) in test [3] and 62.5 µg/mL (≈ 148 µM) in test [4]. Also, the concentration for half-maximal inhibition (IC50) in test [5] is more than 500 µg/mL.
As to `Cn1cnnc1SCCc1nnc(SCC(=O)Nc2nc3ccc(Cl)cc3s2)o1`, the MIC90 in [1] was 500 µg/mL (≈ 1070 µM); in test [2] it was 125 µg/mL (≈ 267 µM); in [3] it was 62.5 µg/mL (≈ 134 µM); in test [4] it was 500 µg/mL (≈ 1070 µM). The IC50 in [5] was found to be 422 µg/mL (≈ 902 µM).
Take `Cn1cnnc1SCCc1nnc(SCC(=O)Nc2nc3ccc([N+](=O)[O-])cc3s2)o1`: the MIC90 in test [1] is 500 µg/mL (≈ 1040 µM); in [2], 125 µg/mL (≈ 261 µM); in test [3], 62.5 µg/mL (≈ 131 µM); in [4], 500 µg/mL (≈ 1040 µM). For the same molecule, the half-inhibitory concentration (IC50) in test [5] is more than 500 µg/mL.
Turning to `Cn1cnnc1SCCc1nnc(SCC(=O)Nc2ccccc2)o1`, the MIC90 in test [1] turned out to be 500 µg/mL (≈ 1330 µM); in test [2], 250 µg/mL (≈ 664 µM); in test [3], 500 µg/mL (≈ 1330 µM); in test [4] it was 250 µg/mL (≈ 664 µM). The concentration for half-maximal inhibition (IC50) in test [5] is more than 500 µg/mL.
Consider `Cn1cnnc1SCCc1nnc(SCC(=O)Nc2nc3ccccc3s2)o1`, for which the MIC90 in test [1] was found to be 250 µg/mL (≈ 577 µM); in test [2], 125 µg/mL (≈ 288 µM); in [3], 250 µg/mL (≈ 577 µM); in [4], 250 µg/mL (≈ 577 µM). The IC50 in [5] was more than 500 µg/mL.
With `Cn1cnnc1SCCc1nnc(SCC(=O)Nc2nc3ccc(F)cc3s2)o1`, the Activity was 36.6% in test [6]; “Tde” in [22]; 42.3% in [7]; 46.4% in [8]; 30.2% in test [9]; “Tde” in [23]. For the same molecule, the Activity in test [10] is 39.5%; in [11], 13.5%; in test [12], 0%; in [13], 0.1%; in [24], “Tde”; in test [14] it was 27.5%. Besides, the Activity in test [15] is 17.7%; in test [25], “Tde”; in test [16] it was 46.9%; in test [17] it was 40.5%; in test [18], 41.7%; in test [19], 0.1%. For the same molecule, the Activity in [20] worked out at 0.1%; in test [21], 17%. The MIC90 in test [1], in test [2], in test [3] and in [4] was 62.5 µg/mL (≈ 138 µM) each time. Moreover, the 50% inhibitory concentration (IC50) in [5] was more than 500 µg/mL.
On to `COc1ccc2nc(NC(=O)CSc3nnc(CCSc4nncn4C)o3)sc2c1`, for which the MIC90 in test [1] stood at 500 µg/mL (≈ 1080 µM); in test [2] it was 125 µg/mL (≈ 270 µM); in test [3] it was 62.5 µg/mL (≈ 135 µM); in test [4] it was 500 µg/mL (≈ 1080 µM). Also, in [5], the IC50 amounted to 485 µg/mL (≈ 1050 µM).
`Clc1ccccc1C(c1ccccc1)(c1ccccc1)n1ccnc1` [CLOTRIMAZOLE]: the Activity in test [6] is on record as 2.7%; in test [7] it was 12.4%; in test [8], 46.3%; in test [9], 32.6%; in test [10] it was 3.1%; in test [11] it was 39.7%. The Activity turned out to be 0.6% in test [12]; 0.8% in [13]; 54.3% in test [14]; 42.2% in test [15]; 56.7% in [16]; 50.7% in [17]. Besides, the Activity is reported as 6.4% in [18], 0.6% in test [19], 0.3% in test [20] and 50.7% in test [21]. Moreover, the MIC90 came to 1.56 µg/mL (≈ 4.54 µM) in test [1], 31.2 µg/mL (≈ 90.6 µM) in test [2], 1.56 µg/mL (≈ 4.54 µM) in test [3] and 62.5 µg/mL (≈ 181 µM) in test [4]. Further, the IC50 in test [5] is 289 µg/mL (≈ 839 µM).
On to `Cn1cnnc1SCCc1nnc(SCC(=O)Nc2ccc(F)cc2)o1`, for which the MIC90 in [1] came to 500 µg/mL (≈ 1270 µM); in test [2], 250 µg/mL (≈ 634 µM); in [3] it was 500 µg/mL (≈ 1270 µM); in test [4], 250 µg/mL (≈ 634 µM). Besides, the IC50 in test [5] is more than 500 µg/mL.
For `COc1ccc(NC(=O)CSc2nnc(CCSc3nncn3C)o2)cc1`, the MIC90 in [1] was 500 µg/mL (≈ 1230 µM); in [2], 250 µg/mL (≈ 615 µM); in test [3], 500 µg/mL (≈ 1230 µM); in [4] it was 250 µg/mL (≈ 615 µM). In addition, the IC50 in test [5] was more than 500 µg/mL.
Consider `CC(=O)N1CCN(c2ccc(OCC3COC(Cn4ccnc4)(c4ccc(Cl)cc4Cl)O3)cc2)CC1` (stereo not drawn) [KETOCONAZOLE], for which the Activity in test [6] is on record as 4.1%; in [7] it was 8.3%; in [8], 23.7%; in [9], 23.8%; in test [10], 11.2%; in test [11] it was 52.4%. Further, the Activity in [12] is 0.3%; in [13], 0.5%; in [14] it was 67.7%; in [15], 57.3%; in test [16] it was 35.3%; in test [17], 27%. Besides, the Activity in [18] is 15.2%; in test [19], 1.1%; in test [20] it was 0.1%; in [21], 72%. Further, the MIC90 amounted to 1.56 µg/mL (≈ 2.94 µM) in test [1], 62.5 µg/mL (≈ 118 µM) in test [2], 1.56 µg/mL (≈ 2.94 µM) in test [3] and 62.5 µg/mL (≈ 118 µM) in [4]. The IC50 in test [5] was 396 µg/mL (≈ 745 µM).

The values above are taken from ChEMBL document CHEMBL4251611, “The synthesis, antifungal and apoptotic effects of triazole-oxadiazoles against Candida species” (Eur J Med Chem, 2018).
